Measured values: patent publication US20120190580A1, “TREATMENT OF PATIENTS AFTER STENT IMPLANTATION OR BALLOON DILATATION AND DRUG ELUTING STENTS” (MAX-PLANCK-GESELLSCHAFT ZUR FORDERUNG DER WISSENSCHAFTEN …, priority 2009, published 2012)
Entries after “also recorded” stand apart in the source; their conditions may differ.

Tests used:
Type in all cases: in vivo, mouse
[1] = tested on: arteries of KO mice; test: Morphological analysis of arteries after chronic treatment; conditions: 20 days treatment
From the text: A 129S7AB2.2 genomic BAC clone (bMQ-446B20; Sanger) was used to generate the targeting vector. Recombination in SW102 cell was employed to replace the miR-143 to miR-145 genomic region by a galK cassette (45) that was amplified by the primers flanking premiR-143 to pre-miR-145 ([…] GCggcgcgcctcagcactgtcctgctcctt; […] ACggcgcgcctgttgacaattaatcatcggca). The genomic sequence was inserted via gap repair into a pKO targeting vector containing a DTA expression cassette and 450 bp homology arms for BAC recombination resulting in a vector containing 6.5 kb of sequence 5′ of miR-143 and 5.5 kb 3′ of miR-145 from genomic sequence […] to […]. The AscI restriction sites flanking the galK cassette were used to replace the galK by a floxed IRESIacZ-NeoR cassette. […]
Arteries were perfused using a PBS solution via the heart apex at 100 mmHg pressure for 2 min, followed by perfusion with 4% paraformaldehyde in PBS. […] Ultra-thin sections were stained with uranyl acetate and lead citrate, viewed and photographically recorded using a Philips CM 10 electron microscope. The phenotype of VSMC was determined ultrastructurally following criteria as previously reported (47). […] The phenotype of VSMC in each mouse was quantified in at least 300 cells per 3 arterial segments (minimum 100 μm) using consecutive transversal sections. […]

[2] = tested on: miR-143/145-deficient mice; test: Hemodynamic measurements by aortic catheterization under isoflurane, acute ACE inhibition; conditions: miR-143/145 KO animals compared with WT, isoflurane anaesthesia, captopril via jugular vein
Experimental: Aortic catheterization was performed using a 1.4 F pressure-volume catheter. Data were recorded and analyzed with Chart v5.4 as described before (51). Mice were anaesthetized with isoflurane (2 vol % in O2) and their body temperature was kept at 37° C. as monitored by a rectal probe. Captopril (30 mg/kg body weight, 50 μl) and angiotensin II (5 to 50000 ng/kg body weight, 50 μl) were applied via the left jugular vein. For measurements of conscious, unrestrained mice, hemodynamic parameters were recorded by telemetry (DSI, Transoma Medical, USA, TA11PA-C10 transmitters) after a recovery period from surgery of more than 7 days. Recordings were obtained every 2 minutes for 20 seconds at a sampling frequency of 1000 Hz and were analyzed for day (07:00-19:00) and nighttime (19:00-07:00) periods, respectively, to evaluate circadian variation in hemodynamics.

[3] = tested on: femoral arteries from KO mice; test: Myograph: contractility of isolated femoral artery rings from mice chronically treated with captopril
From the text: (§1) A 129S7AB2.2 genomic BAC clone (bMQ-446B20; Sanger) was used to generate the targeting vector. Recombination in SW102 cell was employed to replace the miR-143 to miR-145 genomic region by a galK cassette (45) that was amplified by the primers flanking premiR-143 to pre-miR-145 ([…] GCggcgcgcctcagcactgtcctgctcctt; […] ACggcgcgcctgttgacaattaatcatcggca). The genomic sequence was inserted via gap repair into a pKO targeting vector containing a DTA expression cassette and 450 bp homology arms for BAC recombination resulting in a vector containing 6.5 kb of sequence 5′ of miR-143 and 5.5 kb 3′ of miR-145 from genomic sequence […] to […]. The AscI restriction sites flanking the galK cassette were used to replace the galK by a floxed IRESIacZ-NeoR cassette. The vector was electroporated into MPI II ES cells (46) and recombinant clones were identified. Recombinant ES cells were injected into blastocysts and transferred to pseudopregnant mice. Chimeric animals were backcrossed to C57BL/6 mice. Heterozygous animals were used to obtain WT and KO littermates. ES cells and mice were genotyped using an EcoRV restriction digest and a 5′ outside probe amplified from genomic DNA using oligonucleotides ([…]; […]). […] The experiments were performed in accordance with German legislation on protection of animals and were approved by the local governmental animal care committee (Regierungspraesidium Darmstadt).
Isolated segments of femoral and mesenteric arteries were examined in an isometric microvessel myograph as described previously (52). Mounted vessels were stimulated with 80 mM K+, 30 nM angiotensin II or increasing concentrations of phenylephrine (100 nM to 10 μM). The pCa-force relationships (13, 14) were obtained in permeabilized mouse femoral artery segments. In brief, arteries were permeabilized for 30 minutes using 0.5% Triton X-100 in relaxation solution. The latter consisted of (in mM): EGTA 1, Pipes 30, Na2ATP 5.16, MgCl2 7.31, sodium creatine phosphate 10 and potassium gluconate 74.1. For contraction curves the buffer was supplemented with 160 U/ml calmodulin and 100 U/ml creatine phosphokinase. The concentration of free Ca2+ ions was calculated as described previously (53).

[4] = tested on: aortae of miR-143/145 KO mice; test: Affymetrix GeneChip mRNA expression analysis of aortae after chronic captopril or losartan
From the text: as §1
Tissues were dissected from PBS perfused animals and total RNA was isolated using the Trizol method (Invitrogen). RNA quality was checked on the Agilent 2100 Bioanalyser using the RNA 6000 Nano Kit. For mRNA expression analysis the Affymetrix GeneChip Mouse Genome 430 2.0 Array was employed with the respective one-cycle target labelling protocol. Data were analysed by the RMA algorithm using the Affymetrix Expression Console. […] 507 probe sets were identified with p<0.05 and FC>1.5 or FC<0.666. For miRNA expression analysis 384 3′ C6 aminolinker DNA-oligonucleotides complementary to published miRNA (Sanger, miRBase) sequences were synthesised and spotted with eight replicates per array to Nexterion E slides. Probe labelling and hybridization followed the Agilent miRNA labelling protocol, but P-CTTTT-Alexa555 or P-CTTTTAlexa647 oligonucleotides (MWG-Biotech) were ligated to the miRNAs. Arrays were scanned and analysed with an Axon 4200B scanner and GenePix Pro 6.0. Normalisation and data analysis was performed using Acuity 4.0. For multiple tissue comparison, miRNA from tissues was labelled with the Alexa555 dye, miRNA from whole E15.5 embryos labelled with Alexa647 dye was used as a reference. Data were linear normalized to a log ratio of 1 for the ratio of medians of let-7a-g and let-7i signals. The log 2 ratio data were centered for the single miRNA expression signals (by subtracting the row mean from each value), log 2 ratio data are visualized. For Northern blot analysis 3 μg (aorta 1.5 μg) of total RNA were separated on a 15% Polyacrylamide-Urea gel (Invitrogen) and blotted on Hybond XL (Amersham). miR-145, miR-143 and U6 antisense oligonucleotides were labeled with γ-ATP and PNK (NEB) and purified using Micro Bio-Spin® 6 columns (Biorad). Hybridization was performed in Ultrahyb hybridization buffer (Ambion) at 30° C. over night. Blots were washed 2 times in 2×SSC/0.1% SDS at 25° C. (5 min) and at 42° C. (15 min). Signals were detected using a BAS-2500 imager (Fujifilm).

[5] = KO femoral arteries, chronic captopril
[6] = mutant (KO) femoral arteries, captopril treatment vs. KO untreated
[7] = aorta, chronic oral treatment 20 days

Question: With C[C@H](CS)C(=O)N1CCC[C@H]1C(=O)O [captopril] as the compound, how does the “significant morphological changes in arteries” value [1] read?
Answer: not observed

Question: And the “diastolic pressure after acute inhibition of ACE” value [2]?
Answer: stronger decrease; also recorded: pronounced reduction

Question: And the “angiotensin II-induced contraction after ACE inhibition” value [3, 5]?
Answer: 9 % of K+ contraction

Question: What about the “maximal force of contraction generated by K+-induced depolarization” value [3, 5] of the same compound?
Answer: No change; also recorded: did not improve

Question: What about the “phenylephrine-effects after ACE inhibition” value [3, 5] of the same compound?
Answer: 46 % of the K+ contraction

Question: What about the “Maximal angiotensin II-induced force of contraction” value ([3]; captopril-treated WT vessels, femoral artery, 20 day oral treatment) of the same compound?
Answer: 3.4±0.6 mN

Question: And the “Maximal angiotensin II-induced force of contraction” value ([3]; femoral arteries from miR-143/145 KO mice after captopril treatment, 20 days oral)?
Answer: 0.30±0.05 mN

Question: And the “angiotensin II induced contractile responses” value [3, 6]?
Answer: significantly improved; also recorded: markedly improved

Question: And the “contractile response to phenylephrine” value [3, 6]?
Answer: improved responses; also recorded: markedly improved

Question: And the “FC Acta1 (1427735_a_at), treated miR-143/145 KO vs. WT” value [4, 7]?
Answer: 0.87

Question: What about the “FC Arhgef17 (1433682_at), treated miR-143/145 KO vs. WT” value [4, 7] of the same compound?
Answer: 0.82

Question: And the “FC Cald1 (1424768_at), treated miR-143/145 KO vs. WT” value [4, 7]?
Answer: 1.09

Question: And the “FC Camk2g (1423942_a_at), treated miR-143/145 KO vs. WT” value [4, 7]?
Answer: 0.87

Question: What about the “FC Cap2 (1423222_at), treated miR-143/145 KO vs. WT” value [4, 7] of the same compound?
Answer: 0.77

Question: And the “FC Clcn3 (1433486_at), treated miR-143/145 KO vs. WT” value [4, 7]?
Answer: 1.09

Question: What about the “FC Efemp1 (1427183_at), treated miR-143/145 KO vs. WT” value [4, 7] of the same compound?
Answer: 1.22

Question: And the “FC Itga3 (1455158_at), treated miR-143/145 KO vs. WT” value [4, 7]?
Answer: 0.76

Question: And the “FC Krt8 (1420647_a_at), treated miR-143/145 KO vs. WT” value [4, 7]?
Answer: 1.09

Question: And the “FC Mc2r (1422926_at), treated miR-143/145 KO vs. WT” value [4, 7]?
Answer: 1.23

Question: What about the “FC Mylk (1425506_at), treated miR-143/145 KO vs. WT” value [4, 7] of the same compound?
Answer: 0.90

Question: What about the “FC Mylpf (1448371_at), treated miR-143/145 KO vs. WT” value [4, 7] of the same compound?
Answer: 0.77

Question: And the “FC Myoc (1450468_at), treated miR-143/145 KO vs. WT” value [4, 7]?
Answer: 0.99

Question: And the “FC Neo1 (1440789_at), treated miR-143/145 KO vs. WT” value [4, 7]?
Answer: 1.07

Question: What about the “FC Npr3 (1435184_at), treated miR-143/145 KO vs. WT” value [4, 7] of the same compound?
Answer: 1.00

Question: What about the “FC Pde3b (1433694_at), treated miR-143/145 KO vs. WT” value [4, 7] of the same compound?
Answer: 1.04

Question: What about the “FC Ppp2r1b (1419871_at), treated miR-143/145 KO vs. WT” value [4, 7] of the same compound?
Answer: 0.81

Question: And the “FC Prkg1 (1449876_at), treated miR-143/145 KO vs. WT” value [4, 7]?
Answer: 1.12

Question: And the “FC Rock1 (1460729_at), treated miR-143/145 KO vs. WT” value [4, 7]?
Answer: 0.99

Question: What about the “FC S100a8 (1419394_s_at), treated miR-143/145 KO vs. WT” value [4, 7] of the same compound?
Answer: 0.81

Question: And the “FC S100a9 (1448756_at), treated miR-143/145 KO vs. WT” value [4, 7]?
Answer: 0.78

Question: And the “FC Serca1 (1419312_at), treated miR-143/145 KO vs. WT” value [4, 7]?
Answer: 0.72

Question: And the “FC Tnnc2 (1417464_at), treated miR-143/145 KO vs. WT” value [4, 7]?
Answer: 1.13

Question: And the “FC Unc5c (1449522_at), treated miR-143/145 KO vs. WT” value [4, 7]?
Answer: 0.63

Question: What about the “number of the 507 deregulated probe sets returned to normal (WT) levels” value ([4]; mutant mice, 3 weeks (20 days) oral application, p > 0.05 vs. WT, n = 3) of the same compound?
Answer: 248
